# According to US11498900B2, “Salts of an LSD1 inhibitor” (Incyte Corporation, priority 2015, dated 2022):
# What was measured:
# Assay type in all cases: physicochemical
# [1] = Dynamic vapor sorption (DVS) analysis; conditions: 25° C.; for Hygroscopicity (DVS adsorption/desorption isotherm): bis(4-methylbenzenesulfonate)
# Protocol: (§1) Form I was characterized by DVS. The DVS analysis was performed on a TA Instruments Vapor Sorption Analyzer, model VTI-SA^+. The sample was pre-dried on VTI at 50° C. with 0% RH N2 for 1 h. Then the moisture uptake profile was completed in one cycle in 5% RH increments with adsorption from 0% RH to 95% RH followed by desorption in 5% increments from 95% to 5% RH. The equilibration criteria were 0.0050 wt % in 5 minutes with a maximum equilibration time of 180 minutes. All adsorption and desorption were performed at 25° C.
# as §1, with “Form HI” for “Form I”, “The” for “The sample was pre-dried on VTI at 50° C. with 0% RH N2 for 1 h. Then the”, “from 35%” for “from 0%”, “were 0.0010” for “were 0.0050”, “C. No pre-drying step was applied for the sample.” for “C.”
# Form DH was characterized by DVS. The DVS analysis was performed on a TA Instruments Vapor Sorption Analyzer, model VTI-SA^+. Form DH was generated by pre-drying Form HI on VTI at 40° C. with 0% RH N2 for 3 h. Then the moisture uptake profile was completed in one cycle in 5% RH increments with adsorption from 0% RH to 95% RH followed by desorption in 5% increments from 95% to […]. The equilibration criteria were 0.0010 wt % in 5 minutes with a maximum equilibration time of 180 minutes. All adsorption and desorption were performed at 25° C.
# [2] = Solid form conversion on storage or exposure to humidity
# Protocol: Form HI of Compound I di-tosylate salt was prepared during the process of drying a wet sample of Compound I di-tosylate salt, Form I, under ambient conditions. […] Form HI can also be generated by purging humidified air (e.g., 60-85% RH) through Form I solid.
# Form HIII was prepared by drying Form HI on Vapor Sorption Analyzer (TA Instruments VTI-SA^+) at 40° C. with 0% RH N2 for 3 h and then exposing it to humidity at about 30-50% RH at 25° C. for 1 day.
# Form DH was prepared by drying Form HI on Vapor Sorption Analyzer (TA Instruments VTI-SA*) at 25° C. with 0% RH N2 for 2 days.
# [3] = Physical stability of Form HI under different humidity conditions
# Protocol: Physical stability of Form HI was studied under different humidity conditions. The humidity was controlled at 25° C. using Vapor Sorption Analyzer (TA Instruments, Model VTI-SA*). Approximately 20 mg of Form HI in the sample holder was placed inside the humidity chamber of the instrument and held under constant humidity. A sample in an open glass vial was also set up under ambient conditions. After a certain period of time, the sample was removed and characterized by XRPD, DSC, and TGA. Weight loss by TGA was mostly associated with loss of water. The experimental parameters of XRPD, DSC, and TGA are analogous to those in Example 6 for Form HI.
# Form HI was stable for 10 days under humidity conditions of 10-85% RH and was stable for 60 days under ambient conditions. […] The table below provides the data for the physical stability of Form HI at 25° C. (open vial).
# [4] = Concentration of saturated solution in ethanol
# Protocol: In one experiment, Form IIIa was prepared by adding 0.4 mL of saturated solution of Form I in ethanol (60 mg/mL) to 3.0 mL of IPAc. The resulting solid was filtered. Form IIIa was also prepared according to the procedure set forth in Example 13 using EtOH/IPAc as a solvent pair.
# In one experiment, Form X was prepared by adding 0.3 mL of saturated solution of Form I in ethanol (60 mg/mL) to 2.5 mL of heptane. The resulting solid was filtered. Form X was also prepared according to the procedure set forth in Example 13 using EtOH/heptane as a solvent pair.
# [5] = Competitive slurry experiment, relative stability of polymorph forms; conditions: in butanone and butanone/heptane (1:1)
# Protocol: In order to evaluate the relative stability relationship of the various Compound I di-tosylate polymorph forms, a competitive slurry experiment with a mixture of Form I, II, III and IIIa through Form XII was conducted in butanone-heptane at 50° C. according to Procedure 1 below and in butanone at 25° C. according to Procedure 2 below. The mixture of thirteen polymorphs was converted to Form I after stirring in butanone/heptane (1:1) at 50° C. for 6-18 hours and after stirring in butanone at 25° C. for 6-18 hours.
# Procedure 1 competitive experiment in butanone-heptane at 50° C.:
# Procedure 2 competitive experiment in butanone at 25° C.: […]
# [6] = Thermogravimetric analysis (TGA), decomposition; conditions: ramp 20° C. to 600° C. at 20° C./min, nitrogen
# Protocol: Form I was characterized by TGA. The TGA was obtained using a TA Instrument Thermogravimetric Analyzer, Model Q500. The general experimental conditions for TGA were: ramp from 20° C. to 600° C. at 20° C./min; nitrogen purge, gas flow at 40 mL/min followed by balance of the purge flow; sample purge flow at 60 mL/min; platinum sample pan. A weight loss of about 3.5% up to 150° C. was observed and believed to be associated with the loss of moisture and residual solvents.
# [7] = high humidity about 60-85% RH, bis(4-methylbenzenesulfonate)
# [8] = 0% RH, 2 days, 25° C., open vial
# [9] = 5% RH, 7 days, 25° C., open vial
# [10] = 10% RH, 10 days, 25° C., open vial
# [11] = 30% RH, 5 days, 25° C., open vial
# [12] = 75% RH, 10 days, 25° C., open vial
# [13] = 85% RH, 10 days, 25° C., open vial
# [14] = 90% RH, 4 days, 25° C., open vial
compound,measurement,setting,value
"COCC1(CN[C@@H]2C[C@H]2c2ccccc2)CCN(CC2(C(=O)O)CCC2)CC1 [Form DH, 1-{[4-(methoxymethyl)-4-({[(1R,2S)-2-phenylcyclopropyl]amino}methyl)piperidin-1-yl]methyl}cyclobutanecarboxylic acid bis(4-methylbenzenesulfonate)]",Hygroscopicity (DVS adsorption/desorption isotherm),[1],hygroscopic
same,Solid form collected after DVS,[1]; after DVS at 85% RH,Form HI
same,Solid form change on exposure to humidity,[2]; about 30-50% RH,change to Form HIII
same,Solid form change on exposure to humidity,[2]; [7],Form HI
"COCC1(CN[C@@H]2C[C@H]2c2ccccc2)CCN(CC2(C(=O)O)CCC2)CC1 [Form HI, 1-{[4-(methoxymethyl)-4-({[(1R,2S)-2-phenylcyclopropyl]amino}methyl)piperidin-1-yl]methyl}cyclobutanecarboxylic acid bis(4-methylbenzenesulfonate)]",% Wt Loss by TGA (25-120° C.),[3]; [8],2.30%
same,DSC (° C.) (Peak Temperature),[3]; [8],97.5 °C
same,XRPD (solid form),[3]; [8],Form DH
same,% Wt Loss by TGA (25-120° C.),[3]; [9],2.93%
same,DSC (° C.) (Peak Temperature),[3]; [9],81.2 °C
same,XRPD (solid form),[3]; [9],Form HI
same,% Wt Loss by TGA (25-120° C.),[3]; [10],5.05%
same,DSC (° C.) (Peak Temperature),[3]; [10],82.4 °C
same,XRPD (solid form),[3]; [10],Form HI
same,Physical stability,"[3]; 10-85% RH, 10 days, 25° C.",stable
same,% Wt Loss by TGA (25-120° C.),[3]; [11],5.38%
same,DSC (° C.) (Peak Temperature),[3]; [11],80.7 °C
same,XRPD (solid form),[3]; [11],Form HI
same,% Wt Loss by TGA (25-120° C.),[3]; [12],5.30%
same,DSC (° C.) (Peak Temperature),[3]; [12],79.8 °C
same,XRPD (solid form),[3]; [12],Form HI
same,% Wt Loss by TGA (25-120° C.),[3]; [13],5.35%
same,DSC (° C.) (Peak Temperature),[3]; [13],79.9 °C
same,XRPD (solid form),[3]; [13],Form HI
same,Physical stability,"[3]; 90% RH, 25° C.",change to Form HII
same,% Wt Loss by TGA (25-120° C.),[3]; [14],6.04%
same,DSC (° C.) (Peak Temperature),[3]; [14],80.0 °C
same,XRPD (solid form),"[3]; 90% RH, 4 days, 25° C., open vial, cell wraps over r12-r14: Form HI + Form HII (minor)",Form HI +
same,% Wt Loss by TGA (25-120° C.),"[3]; 90% RH, 10 days, 25° C., open vial",9.4%
same,XRPD (solid form),"[3]; 90% RH, 10 days, 25° C., open vial, cell wraps over r15-r16: Form HI + Form HII",Form HI +
same,% Wt Loss by TGA (25-120° C.),"[3]; Ambient, 60 days, open vial",4.77%
same,DSC (° C.) (Peak Temperature),"[3]; Ambient, 60 days, open vial",79.8 °C
same,XRPD (solid form),"[3]; Ambient, 60 days, open vial",Form HI
same,Physical stability,"[3]; ambient conditions, 60 days, open vial",stable
same,Physical stability,"[3]; below 10% RH, 25° C.",de-hydrated
same,Hygroscopicity (DVS adsorption/desorption isotherm),[1],slightly hygroscopic
"COCC1(CN[C@@H]2C[C@H]2c2ccccc2)CCN(CC2(C(=O)O)CCC2)CC1 [Form HIII, 1-{[4-(methoxymethyl)-4-({[(1R,2S)-2-phenylcyclopropyl]amino}methyl)piperidin-1-yl]methyl}cyclobutanecarboxylic acid bis(4-methylbenzenesulfonate)]",Solid form change on exposure to humidity,[2]; [7],change to Form HI
"COCC1(CN[C@@H]2C[C@H]2c2ccccc2)CCN(CC2(C(=O)O)CCC2)CC1 [Form I, 1-{[4-(methoxymethyl)-4-({[(1R,2S)-2-phenylcyclopropyl]amino}methyl)piperidin-1-yl]methyl}cyclobutanecarboxylic acid bis(4-methylbenzenesulfonate)]",Concentration of saturated solution,[4],60000 µg/mL
same,Hygroscopicity (DVS adsorption/desorption isotherm),[1],hygroscopic
same,Solid form change,"[2]; drying of wet sample under ambient conditions, atmospheric moisture",changed to crystalline Form HI
same,Solid form change on storage,[2]; storage 25° C./60% RH,converted to Form HI
same,Solid form change on storage,[2]; storage 40° C./75% RH,converted to Form HI
same,Relative stability of polymorphic forms,[5],most stable polymorphic form
same,Temperature after which significant decomposition starts (TGA),[6],> 200 °C
